In patent publication US8017600B2, “Imidazole compounds” (Janssen Pharmaceutica NV, priority 2004, dated 2011):
pKi: −log10 of the molar value.

Biological target: T1, human histamine H4 receptor (Homo sapiens, UniProt Q9H3N8)
T1 construct: expressed in transfected cells; host or cells: SK-N-MC cells or COS7 cells, transient transfection; cell membranes
Assay: Binding assay on recombinant human histamine H4 receptor (3H-histamine displacement)
Conditions: membranes of SK-N-MC or COS7 cells expressing human H4 receptor, Cheng-Prusoff
Protocol: SK-N-MC cells or COS7 cells were transiently transfected with pH4R and grown in 150 cm^2 tissue culture dishes. Cells were washed with saline solution, scraped with a cell scraper and collected by centrifugation (1000 rpm, 5 min). Cell membranes were prepared by homogenization of the cell pellet in 20 mM Tris-HCl with a polytron tissue homogenizer for 10 sec at high speed. Homogenate was centrifuged at 1000 rpm for 5 min at 4° C. The supernatant was then collected and centrifuged at 20,000×g for 25 min at 4° C. The final pellet was resuspended in 50 mM Tris-HCl. Cell membranes were incubated with ^3H-histamine (5-70 nM) in the presence or absence of excess histamine (10,000 nM). Incubation occurred at room temperature for 45 min. Membranes were harvested by rapid filtration over Whatman GF/C filters and washed 4 times with ice-cold 50 mM Tris HCl. Filters were then dried, mixed with scintillant and counted for radioactivity. SK-N-MC or COS7 cells expressing human histamine H4 receptor were used to measure the affinity of binding of other compounds and their ability to displace ^3H-ligand binding by incubating the above-described reaction in the presence of various concentrations of inhibitor or compound to be tested.

Row | Structure (SMILES) | pKi
1 | Cc1ccc(-c2nc(-c3ccc(OCCCN4CCN(C)CC4)cc3Cl)[nH]c2-c2ccc(C)cc2)cc1 [Example 5, 1-{3-[3-Chloro-4-(4,5-di-p-tolyl-1H-imidazol-2-yl)-phenoxy]-propyl}-4-methyl-piperazine] | 7.62
2 | Cc1nc(-c2ccc(OCCCC3CCN(C)CC3)cc2Cl)[nH]c1CC(C)C [Example 40, 4-{3-[3-Chloro-4-(5-isobutyl-4-methyl-1H-imidazol-2-yl)-phenoxy]-propyl}-1-methyl-piperidine] | 7.03
3 | Cc1cc(OCCCC2CCN(C)CC2)ccc1-c1nc(-c2cccc(C(F)(F)F)c2)c(C)[nH]1 [Example 46, 1-Methyl-4-(3-{3-methyl-4-[5-methyl-4-(3-trifluoromethyl-phenyl)-1H-imidazol-2-yl]-phenoxy}-propyl)-piperidine] | 7.80
4 | Cc1nc(-c2ccc(OCCCN3CCN(C)CC3)cc2Cl)[nH]c1C [Example 43, 1-{3-[3-Chloro-4-(4,5-dimethyl-1H-imidazol-2-yl)-phenoxy]-propyl}-4-methyl-piperazine] | 5.60
5 | CN1CCC(CCCOc2ccc(-c3nc4c([nH]3)CCCC4)c(Cl)c2)CC1 [Example 23, 2-{2-Chloro-4-[3-(1-methyl-piperidin-4-yl)-propoxy]-phenyl}-4,5,6,7-tetrahydro-1H-benzoimidazole] | 6.81
6 | CN1CCN(CCCOc2ccc(-c3nc(-c4ccc(F)cc4)c(-c4ccc(F)cc4)[nH]3)c(Cl)c2)CC1 [Example 6, 1-(3-{4-[4,5-Bis-(4-fluoro-phenyl)-1H-imidazol-2-yl]-3-chloro-phenoxy}-propyl)-4-methyl-piperazine] | 7.54
7 | Cc1[nH]c(-c2cccc(OCCCCC3CCN(C)CC3)c2)nc1-c1ccc(Cl)cc1 [Example 34, 4-(4-{3-[4-(4-Chloro-phenyl)-5-methyl-1H-imidazol-2-yl]-phenoxy}-butyl)-1-methyl-piperidine] | 7.48
8 | Cc1[nH]c(-c2ccc(OCCCC3CCN(C)CC3)nc2)nc1-c1ccc(C(F)(F)F)cc1 [Example 30, 2-[3-(1-Methyl-piperidin-4-yl)-propoxy]-5-[5-methyl-4-(4-trifluoromethyl-phenyl)-1H-imidazol-2-yl]-pyridine] | 7.19
9 | Cc1[nH]c(-c2ccc(OCCCC3CCN(C)CC3)cc2Cl)nc1-c1cc(Cl)cc(Cl)c1 [Example 17, 4-(3-{3-Chloro-4-[4-(3,5-dichloro-phenyl)-5-methyl-1H-imidazol-2-yl]-phenoxy}-propyl)-1-methyl-piperidine] | 7.28
10 | CN1CCN(CCCOc2ccc(-c3nc(-c4ccccc4)c(C(F)(F)F)[nH]3)c(Cl)c2)CC1 [Example 44, 1-{3-[3-Chloro-4-(4-phenyl-5-trifluoromethyl-1H-imidazol-2-yl)-phenoxy]-propyl}-4-methyl-piperazine] | 7.70
11 | Cc1[nH]c(-c2ccc(OCCCN3CCN(C)CC3)nc2)nc1-c1ccc(C(F)(F)F)cc1 [Example 32, 1-Methyl-4-(3-{5-[5-methyl-4-(4-trifluoromethyl-phenyl)-1H-imidazol-2-yl]-pyridin-2-yloxy}-propyl)-piperazine] | 6.64
12 | Cc1cc(OCCOC2CCN(C)CC2)ccc1-c1nc(-c2ccc(Cl)cc2)c(C)[nH]1 [Example 48, 4-(2-{4-[4-(4-Chloro-phenyl)-5-methyl-1H-imidazol-2-yl]-3-methyl-phenoxy}-ethoxy)-1-methyl-piperidine] | 6.21
13 | CN1CCC(CCCCOc2cccc(-c3nc(-c4ccccc4)c(C(F)(F)F)[nH]3)c2)CC1 [Example 35, 1-Methyl-4-{4-[3-(4-phenyl-5-trifluoromethyl-1H-imidazol-2-yl)-phenoxy]-butyl}-piperidine] | 7.24
14 | CN1CCC(CCCCOc2cc(-c3nc(-c4ccccc4)c(C(F)(F)F)[nH]3)ccn2)CC1 [Example 36, 2-[4-(1-Methyl-piperidin-4-yl)-butoxy]-4-(4-phenyl-5-trifluoromethyl-1H-imidazol-2-yl)-pyridine] | 7.27
15 | CN1CCC(CCCOc2ccc(-c3nc(-c4ccc(F)cc4)c(-c4ccc(F)cc4)[nH]3)c(Cl)c2)CC1 [Example 20, 4-(3-{4-[4,5-Bis-(4-fluoro-phenyl)-1H-imidazol-2-yl]-3-chloro-phenoxy}-propyl)-1-methyl-piperidine] | 7.41

Continued, values first:

Row | pKi | Structure (SMILES)
16 | 7.14 | Cc1[nH]c(-c2ccc(OCCCC3CCN(C)CC3)nc2)nc1-c1ccc(Cl)cc1 [Example 28, 5-[4-(4-Chloro-phenyl)-5-methyl-1H-imidazol-2-yl]-2-[3-(1-methyl-piperidin-4-yl)-propoxy]-pyridine]
17 | 5.71 | CN1CCN(CCCOc2ccc(-c3ncc[nH]3)cc2Cl)CC1 [Example 42, 1-{3-[2-Chloro-4-(1H-imidazol-2-yl)-phenoxy]-propyl}-4-methyl-piperazine]
18 | 7.85 | CN1CCN(CCCOc2ccc(-c3nc(-c4ccc(Br)cc4)c(-c4ccc(Br)cc4)[nH]3)c(Cl)c2)CC1 [Example 1, 1-(3-{4-[4,5-Bis-(4-bromo-phenyl)-1H-imidazol-2-yl]-3-chloro-phenoxy}-propyl)-4-methyl-piperazine]
19 | 7.10 | CN1CCCN(CCCOc2ccc(-c3nc(-c4ccccc4)c(C(F)(F)F)[nH]3)cc2Cl)CC1 [Example 45, 1-{3-[2-Chloro-4-(4-phenyl-5-trifluoromethyl-1H-imidazol-2-yl)-phenoxy]-propyl}-4-methyl-[1,4]diazepane]
20 | 7.48 | Cc1cc(OCCCC2CCN(C)CC2)ccc1-c1nc(-c2ccc(Cl)cc2)c(C)[nH]1 [Example 47, 4-(3-{4-[4-(4-Chloro-phenyl)-5-methyl-1H-imidazol-2-yl]-3-methyl-phenoxy}-propyl)-1-methyl-piperidine]
21 | 6.60 | Cc1[nH]c(-c2cccc(OCCCCC3CCN(C)CC3)c2)nc1-c1ccc(C(F)(F)F)cc1 [Example 41, 1-Methyl-4-(4-{3-[5-methyl-4-(4-trifluoromethyl-phenyl)-1H-imidazol-2-yl]-phenoxy}-butyl)-piperidine]
22 | 7.42 | CN1CCC(CCCOc2ccc(-c3nc(-c4ccccc4)c(C(F)(F)F)[nH]3)c(Cl)c2)CC1 [Example 15, 4-{3-[3-Chloro-4-(4-phenyl-5-trifluoromethyl-1H-imidazol-2-yl)-phenoxy]-propyl}-1-methyl-piperidine]
23 | 7.43 | COc1cccc(-c2nc(-c3ccc(OCCCC4CCN(C)CC4)cc3Cl)[nH]c2-c2cccc(OC)c2)c1 [Example 21, 4-(3-{4-[4,5-Bis-(3-methoxy-phenyl)-1H-imidazol-2-yl]-3-chloro-phenoxy}-propyl)-1-methyl-piperidine]
24 | 8.22 | COc1cccc(-c2nc(-c3ccc(OCCCN4CCCN(C)CC4)cc3Cl)[nH]c2-c2cccc(OC)c2)c1 [Example 10, 1-(3-{4-[4,5-Bis-(3-methoxy-phenyl)-1H-imidazol-2-yl]-3-chloro-phenoxy}-propyl)-4-methyl-[1,4]diazepane]
25 | 7.66 | Cc1[nH]c(-c2ccc(OCCCC3CCN(C)CC3)cc2Cl)nc1-c1ccc(Cl)cc1 [Example 19, 4-(3-{3-Chloro-4-[4-(4-chloro-phenyl)-5-methyl-1H-imidazol-2-yl]-phenoxy}-propyl)-1-methyl-piperidine]
26 | 6.78 | Cc1[nH]c(-c2ccc(OCCCC3CCN(C)CC3)cc2Cl)nc1-c1cccc(C(F)(F)F)c1 [Example 16, 4-(3-{3-Chloro-4-[5-methyl-4-(3-trifluoromethyl-phenyl)-1H-imidazol-2-yl]-phenoxy}-propyl)-1-methyl-piperidine]
27 | 7.41 | CN1CCN(CCCOc2ccc(-c3nc(-c4ccccc4)c(-c4ccccc4)[nH]3)c(Cl)c2)CC1 [Example 2, 1-{3-[3-Chloro-4-(4,5-diphenyl-1H-imidazol-2-yl)-phenoxy]-propyl}-4-methyl-piperazine]
28 | 7.68 | COc1cccc(-c2nc(-c3ccc(OCCCN4CCN(C)CC4)cc3Cl)[nH]c2-c2cccc(OC)c2)c1 [Example 7, 1-(3-{4-[4,5-Bis-(3-methoxy-phenyl)-1H-imidazol-2-yl]-3-chloro-phenoxy}-propyl)-4-methyl-piperazine]
29 | 7.19 | CN1CCCN(CCCOc2ccc(-c3nc4c([nH]3)CCCC4)cc2Cl)CC1 [Example 12, 2-{3-Chloro-4-[3-(4-methyl-[1,4]diazepan-1-yl)-propoxy]-phenyl}-4,5,6,7-tetrahydro-1H-benzoimidazole]
30 | 7.49 | Cc1cc(OCCCC2CCN(C)CC2)ccc1-c1nc(-c2ccccc2)c(C(F)(F)F)[nH]1 [Example 14, 1-Methyl-4-{3-[3-methyl-4-(4-phenyl-5-trifluoromethyl-1H-imidazol-2-yl)-phenoxy]-propyl}-piperidine]
31 | 7.49 | CN1CCCN(CCCOc2ccc(-c3nc4c([nH]3)CCCC4)c(Cl)c2)CC1 [Example 13, 2-{2-Chloro-4-[3-(4-methyl-[1,4]diazepan-1-yl)-propoxy]-phenyl}-4,5,6,7-tetrahydro-1H-benzoimidazole]
32 | 7.22 | COc1cccc(-c2nc(-c3ccc(OCCCN4CCN(C)CC4)c(F)c3)[nH]c2-c2cccc(OC)c2)c1 [Example 8, 1-(3-{4-[4,5-Bis-(3-methoxy-phenyl)-1H-imidazol-2-yl]-2-fluoro-phenoxy}-propyl)-4-methyl-piperazine]
33 | 7.00 | CCc1[nH]c(-c2ccc(OCCCC3CCN(C)CC3)cc2Cl)nc1C [Example 25, 4-{3-[3-Chloro-4-(5-ethyl-4-methyl-1H-imidazol-2-yl)-phenoxy]-propyl}-1-methylpiperidine]
